Where two headings read alike, the source gives them in different places.
What was measured:
HeLa cells = assay: Immunofluorescence of mitotic spindle and interkinetochore distance; assay type: cell-based, human; set-up: Median inter-kinetochore distance / Average inter-kinetochore distance: unit not given here; details: for Effect on mitotic spindle: asynchronous HeLa, 2 h, 12 μM proTAME, nocodazole or taxol
Experimental: HeLa cells grown in DMEM+10% FBS were plated on 25 mm glass coverslips in a E-well dish at a density of 130,000/ml×3 ml 48 h prior to treatment. They were then treated with 0.06% DMSO, 12 μM proTAME, 300 nM nocodazole or 300 nM taxol for 2 h. The cells were washed twice with PBS and fixed with 3% paraformaldehyde for 15 min. The cells were then washed with PBS and permeabilized with PBS plus 0.5% Triton X-100 for 2 min. The cells were then washed with PBS and blocked with PBS plus 5% FBS for 1 h. CREST antisera diluted 1:50 into PBS was added to the cells and incubated at room temperature for 1 h. The cells were washed with PBS and incubated with 1:1000 anti-human-Alexa 568 (Invitrogen, A21090) and 1:100 anti-α-tubulin-FITC for 1 h. The cells were then washed with PBS and the nuclei were stained with 1 μg/ml Hoechst 33342. The cover slips were mounted in 0.1M N-propylgallate in 9:1 glycerol:PBS. Z-series images were taken on a Nikon TE2000 microscope with PerkinElmer spinning disk confocal device. Maximal Z-projection images of individual cells were made by Image J. To measure interkinetochore distances, a straight line was drawn across a kinetochore pair in the same confocal plane and pixel intensities along the line were plotted so that each kinetochore would be represented by a peak on the line. The interkinetochore distance was calculated as the distance between the peaks. Fifty-five kinetochore pairs from 5 cells treated with DMSO or proTAME were measured and the p-value was calculated with a paired student test.

HeLa H2B-GFP cells = assay: Live cell imaging of mitotic duration and cell fate; assay type: cell-based, human; details: for Response of arrested cells to roscovitine: 100 μM roscovitine at 12 h after release; for Mitotic phenotype: synchronized HeLa H2B-GFP
Experimental: Detailed siRNA transfection and drug treatment schemes are described in supplemental experimental procedures. HeLa H2B-GFP cells were plated in DMEM with 10% FBS at 20% confluence. […] Live cell imaging was performed at 12 minute intervals on a Nikon TE2000E PFS inverted microscope fitted with an incubation chamber maintained at 37° C. and supplied with 5% CO2. Cell division was tracked by manual inspection of movies, and mitotic duration was measured as the time between the first frame of chromosome condensation and the frame of chromosome segregation (anaphase), decondensation (mitotic exit without anaphase) or cell death (chromosomes shrinking to a small bright dot).
The imaging plate was mounted onto a motorized stage (Prior ProScan II) on a Nikon TE2000E PFS inverted microscope fitted with an incubation chamber maintained at 37° C. and supplied with 5% CO2. A 20× Plan Apo 0.75 NA or 40× Plan Fluor 0.75 NA objective lens was used as indicated and images were collected with 2×2 binning. […] TIFF files of each image were exported from Elements and used to build stacks and Quicktime movies with Metamorph imaging software (Molecular Devices). For manual analysis, mitotic duration is counted as the time between the first frame of chromosome condensation and the frame of chromosome segregation (anaphase) or decondensation (mitotic exit in the presence of nocodazole) or cell death (chromosomes shrinking to a small bright dot).
HeLa H2B-GFP cells were plated in a 24-well plate in DMEM 10% FBS at 20% confluence one day prior to experiment and synchronized by double thymidine block as described above. […] Live cell imaging was set up as described above.
HeLa H2B-GFP cells were plated in a 24-well plate in DMEM+10% FBS at 20% confluence one day prior to the experiment and synchronized by double thymidine block as described above. The cells were released from the first thymidine block into 200 μl OptiMem without FBS. Transfection was performed immediately after the first thymidine release. […] The two mixtures were left at room temperature for 5 min before being mixed together and incubated for additional 20 min and then added to the cells to a final volume of 250 μl. 4 h after transfection, 250 μl of DMEM+20% FBS were added to cells.
HeLa H2B-GFP cells were plated in glass-bottom 24-well plates at 20% confluence one day prior to the experiment and synchronized by double thymidine block as described above. […] Cells were treated with 100 nM Hesperadin or DMSO 8 h after release from the second thymidine block and live cell imaging was set up as described above.
HeLa H2B-GFP cells were plated in a 24-well plate in DMEM+10% FBS at 20% confluence one day prior to experiment and synchronized by double thymidine block as synchronized above. […] Live cell imaging was set up as described above.
HeLa H2B-GFP cells were plated in a 24-well plate in DMEM+10% FBS at 20% confluence one day prior to experiment and synchronized by double thymidine block as described above. […] Untreated cells were used as the control. Live cell imaging was set up as described above. […] Alternatively, at 10 h after release from the second block, 10 μM MG132 with or without 25 μg/ml cycloheximide was added to the cells. […] Live cell imaging was set up as described above.
HeLa H2B-GFP cells were plated in a 24-well plate in DMEM+10% FBS at 20% confluence one day prior to experiment and synchronized by double thymidine block as described above. Mad2 siRNA transfection was performed as described above. At 10 h after release from the second block, 10 μM MG132 with or without 25 μg/ml cycloheximide was added to the cells. Live cell imaging was set up as described above. Manual analysis was focused only on cells that entered mitosis after MG132 addition.
Live cell imaging experiments. […] Nocodazole, taxol, proTAME, cyclinal and hesperadin were added to cells at 8 h after release. MG132 was added to cells at 10 h after release to allow mitotic entry.

[1] = Example 3, Mad2 knockdown, 12 μM proTAME, 300 nM nocodazole
[2] = Example 3, without Mad2 knockdown, 12 μM proTAME, 300 nM nocodazole
[3] = Fig 6A, MAD2 siRNA, 12 μM proTAME, 300 nM nocodazole
[4] = Fig 6A, control siRNA, 12 μM proTAME, 300 nM nocodazole
[5] = Fig 6C, compounds 8 h after release, 12 μM proTAME, 300 nM nocodazole, 150 nM taxol, 100 nM hesperadin
[6] = Fig 8A, 12 μM proTAME, 300 nM nocodazole or 150 nM taxol, ± 25 μg/ml cycloheximide 4 h later
[7] = double-thymidine synchronized cells, Mad2 knockdown
[8] = double-thymidine synchronized cells, without Mad2 knockdown
[9] = Fig 5A, synchronized HeLa cells, 780 nM
[10] = Fig 5A, synchronized HeLa cells, 3 μM
[11] = Fig 5A, synchronized HeLa cells, 12 μM
[12] = Fig 5B, control siRNA, low proTAME concentration (4 μM)
[13] = Fig 5B, partial Cdc20 knockdown (Cdc20 siRNA), proTAME 4 μM
[14] = Fig S5G, after washout from nocodazole-induced arrest, release in proTAME 12 μM ± hesperadin 100 nM

In the case of `COC(=O)Nc1nc2ccc(C(=O)c3cccs3)cc2[nH]1` [Nocodazole, reference compound], the “Effect on mitotic spindle” value (HeLa cells) is reported as “strongly perturbed spindle organization”, the Prolongation of mitosis (HeLa H2B-GFP cells; 10 nM nocodazole) is reported as 20 min and the “Extension of mitotic duration” value (HeLa H2B-GFP cells; 10 nM, SAC-proficient cells) is reported as 20 min. The “Response of arrested cells to roscovitine” value (HeLa H2B-GFP cells) was “induced instantaneous mitotic exit”, the Median mitotic duration (HeLa H2B-GFP cells; [1]) was 30 min and the Median mitotic duration (HeLa H2B-GFP cells; [2]) was 1230 min. For the same compound, the Average mitotic duration (HeLa H2B-GFP cells; [3]) was 98.2 min, the Median mitotic duration (HeLa H2B-GFP cells; [3]) was 36 min and the Average mitotic duration (HeLa H2B-GFP cells; [4]) was 1680.1 min. It also gave a Median mitotic duration (HeLa H2B-GFP cells; [4]) of 1812 min, an Average mitotic duration (HeLa H2B-GFP cells; [5]) of 1851.8 min and a Median mitotic duration (HeLa H2B-GFP cells; [5]) of 2094 min. For the same compound, the Average mitotic duration (HeLa H2B-GFP cells; [6]) was 1777.0 min, the Median mitotic duration (HeLa H2B-GFP cells; [6]) was 2160 min and the “Duration of mitotic arrest” value (HeLa H2B-GFP cells; [7]) was 0.6 h. The “Duration of mitotic arrest” value (HeLa H2B-GFP cells; [8]) was 30 h.
`COC(=O)[C@H](CCCN/C(=N\C(=O)OCOC(=O)Cc1ccccc1)NC(=O)OCOC(=O)Cc1ccccc1)NS(=O)(=O)c1ccc(C)cc1` [proTAME] was tested, and the Average inter-kinetochore distance (HeLa cells; Fig 5E, 12 μM proTAME for 2 h) was 1.26, the Median inter-kinetochore distance (HeLa cells; Fig 5E, 12 μM proTAME for 2 h) was 1.28 and the “Effect on mitotic spindle” value (HeLa cells) was “no measurable differences in mitotic spindle morphology or inter-kinetochore distance”. For the same compound, the Average mitotic duration (HeLa H2B-GFP cells) was 1512.4 min, the Median mitotic duration (HeLa H2B-GFP cells) was 1488 min and the Mitotic duration (HeLa H2B-GFP cells; 3 μM) was 5 h. The “Duration of mitotic arrest” value (HeLa H2B-GFP cells; 12 μM proTAME) was “over 28 h”, the “Extension of mitotic duration” value (HeLa H2B-GFP cells; 12 μM, SAC inactivated by Mad2 depletion) was 72 min and the “Extension of mitotic duration” value (HeLa H2B-GFP cells; 12 μM, intact SAC) was 1380 min. For the same compound, the “Response of arrested cells to roscovitine” value (HeLa H2B-GFP cells) was “induces rapid mitotic exit”, the Mitotic duration (HeLa H2B-GFP cells; Cdc20 levels reduced by 50% by siRNA, 4 μM) was 19.4 h and the “Duration of mitotic arrest” value (HeLa H2B-GFP cells; Example 2, 12 μM proTAME, DIC imaging) was “over 10 hours”. For the same compound, the “Duration of metaphase arrest” value (HeLa H2B-GFP cells; Example 2, 12 (μM) proTAME, fluorescence imaging) was “more than 8 hours”, the Mitotic duration (HeLa H2B-GFP cells; Example 2, HeLa H2B-GFP fluorescence imaging, 3 μM proTAME, proAAME control) was 2 h and the Median mitotic duration (HeLa H2B-GFP cells; [1]) was 120 min. For the same compound, the Median mitotic duration (HeLa H2B-GFP cells; [2]) was 420 min, the Average mitotic duration (HeLa H2B-GFP cells; [9]) was 165.4 min and the Median mitotic duration (HeLa H2B-GFP cells; [9]) was 156 min. The Average mitotic duration (HeLa H2B-GFP cells; [10]) was 444.6 min, the Median mitotic duration (HeLa H2B-GFP cells; [10]) was 348 min and the Average mitotic duration (HeLa H2B-GFP cells; [11]) was 1640.5 min. It also gave a Median mitotic duration (HeLa H2B-GFP cells; [11]) of 1680 min, an Average mitotic duration (HeLa H2B-GFP cells; [12]) of 496.5 min and a Median mitotic duration (HeLa H2B-GFP cells; [12]) of 288 min. For the same compound, the Average mitotic duration (HeLa H2B-GFP cells; [13]) was 1235.3 min, the Median mitotic duration (HeLa H2B-GFP cells; [13]) was 1170 min and the Average mitotic duration (HeLa H2B-GFP cells; [3]) was 121.7 min. The Median mitotic duration (HeLa H2B-GFP cells; [3]) was 84 min, the Average mitotic duration (HeLa H2B-GFP cells; [5]) was 1329.3 min and the Median mitotic duration (HeLa H2B-GFP cells; [5]) was 1272 min. For the same compound, the Average mitotic duration (HeLa H2B-GFP cells; [6]) was 1052.0 min, the Median mitotic duration (HeLa H2B-GFP cells; [6]) was 972 min and the Average mitotic duration (HeLa H2B-GFP cells; [14]) was 1516.4 min. The Median mitotic duration (HeLa H2B-GFP cells; [14]) was 1410 min, the “Effect on mitotic exit” value (HeLa H2B-GFP cells; Mad2-knockdown cells, proTAME 12 μM, cyclinal 100 μM) was “only transiently delayed mitotic exit” and the Median mitotic duration (HeLa H2B-GFP cells; Mad2 knockdown cells (12 min without proTAME)) was 84 min. For the same compound, the Mitotic duration (HeLa H2B-GFP cells; control-transfected cells, 4 μM) was 4.8 h, the “Duration of mitotic arrest” value (HeLa H2B-GFP cells; [7]) was 1.4 h and the “Duration of mitotic arrest” value (HeLa H2B-GFP cells; [8]) was 24.6 h. The “Duration of mitotic arrest” value (HeLa H2B-GFP cells; in the absence of Mad2) was “approximately 2 hours”, the “Effect on mitotic exit” value (HeLa H2B-GFP cells; in the presence of hesperadin) was “only transiently delayed mitotic exit” and the Mitotic phenotype (HeLa H2B-GFP cells; 780 nM or 3 μM) was “remained in metaphase for up to several hours, but then proceeded through a normal anaphase”. For the same compound, the Mitotic phenotype (HeLa H2B-GFP cells; 12 μM) was “arrested in metaphase and subsequently died”, the Median mitotic arrest (HeLa H2B-GFP cells; synchronized, drugs 10 hrs after release, proTAME 1 μM, MG132 0.5 μM) was 216 min and the Median mitotic delay/arrest (HeLa H2B-GFP cells; synchronized, drugs 10 hrs after release, proTAME 3 μM, low-dose MG132) was 438 min. It also gave a Median mitotic duration (HeLa H2B-GFP cells; unsynchronized HeLa H2B-GFP, taxol 10 nM, proTAME 3 μM, control 60 min) of 132 min.
